Assay results as given in US20220304929A1, “LIPIDS FOR DELIVERY OF CHARGED MATERIAL, FORMULATIONS THEREOF AND METHOD FOR MAKING SAME” (INTEGRATED NANOTHERAPEUTICS INC., priority 2019, published 2022).

Experiments:
factor VII (FVII) = assay: LNP-siRNA activity in the mouse Factor VII model; format: in vivo; details: C57Bl/6 mice, i.v. tail vein, 0.03-0.3 mg/kg siRNA, 24 hours post-injection
Description: Lipid nanoparticle (LNP) formulations containing cationic lipids of the disclosure and FVII siRNA were injected via a tail vein in C57Bl/6 wild-type mice and the levels of FVII in plasma was measured post injection. The mice were injected with LNP-siRNA at doses of 0.03 (left bar), 0.1 (middle bar) and 0.3 mg/kg (right bar). The cationic lipids incorporated in the LNPs were INT-A001, INT-A002, INT-A003 and INT-A007.
LNPs prepared as described in Example 2 containing siRNA against factor VII (FVII) were diluted with PBS such that injection volumes were maintained at 10 mL/kg body weight and administered (based on siRNA concentration) intravenously via tail vein in 6 to 8 weeks old female C57Bl/6 mice (Charles River Laboratories, Wilmington, Mass.). At 24 hours post-injection, animals were euthanized and blood was collected via intracardiac sampling. Blood samples were allowed to coagulate at 4° C. overnight and the serum was separated followed by centrifugation for 15 min at 12,000 rpm. The serum FVII levels were determined using the Biophen VII chromogenic assay (Aniara, Mason, Ohio) according to the protocol of the manufacturer.

[1] = HA incorporation into LNP (HA:Lipid ratio); format: physicochemical; details: LNP containing ionizable lipid and HA (8-15 kDa)
Description: (§1) Lipid concentrations were determined by measuring total cholesterol using the Cholesterol E enzymatic assay kit from Wako Chemicals USA (Richmond, Va.).
Hyaluronic acid was used as an example of anionic cargos. LNPs were prepared as described in Example 2 containing HA with a molecular weight of 8-15 kDa.

[2] = RNA or antisense oligonucleotide encapsulation efficiency (Quant-iT Ribogreen RNA / Oligreen ssDNA assays); format: physicochemical
Description: The RNA or antisense oligonucleotide encapsulation efficiency was determined using the Quant-iT Ribogreen RNA or Oligreen ssDNA Assays, respectively (Life Technologies, Burlington, ON). Briefly, LNP was incubated at 37° C. for 10 min in the presence or absence of 1% Triton X-100 (Sigma-Aldrich, St. Louis, Mo.) followed by the addition of the Ribogreen or Oligreen reagent. The fluorescence intensity (Ex/Em: 480/520 nm) was determined and samples treated with Triton X-100 represent total nucleic acid while untreated samples represent unencapsulated nucleic acid.
To prepare the LNPs, ionizable lipid, DSPC, cholesterol and PEG-DMPE were dissolved in ethanol. The siRNA was dissolved in pH 4.0-6.2 buffer composed of 10-50 mM acetate, succinate or citrate. In select cases, 10-50 mM 4-(2-Hydroxyethyl)piperazine-1-ethanesulfonic acid (HEPES) or 2-(N-Morpholino)ethanesulfonic acid (MES) buffer was used. LNP were prepared by rapidly mixing the lipid components in ethanol (in molar ratio of 50/10/38.5/1.5 of […]) with nucleic acids in aqueous buffer at a volumetric flow rate ratio of 1:3 (ethanol to aqueous, combined flow rate >12 mL/min) at room temperature. Typically, siRNA/lipids ratios were targeted for 0.056 wt/μmol. The product was then dialyzed against 1× phosphate-buffered saline (PBS) at pH 7.4 for 24 hours to remove residual ethanol and to raise the pH. PBS was refreshed after 4 hours.

[3] = LNP particle size and polydispersity by dynamic light scattering; format: physicochemical
[4] = system: luciferase expressing human prostate cells (22Rv1); assay: LNP-siRNA luciferase gene silencing in cultured 22Rv1 cells; format: cell-based; details: 1 ug/mL siRNA, 16-24 hr
Description: Cells were treated with lipid nanoparticle (LNP) formulations containing ionizable lipids of the disclosure and Luciferase siRNA at concentrations of 1.0 (left bar), 0.3 (middle bar) and 0.1 μg/mL (right bar). The level of luminescence was measured post treatment. The ionizable lipids incorporated in the LNPs were 2-(dimethylamino)ethyl (±)-syn-9,10-dilinoleoxystearate (INT-A001), 3-(diethylamino)propyl (±)-syn-9,10-dilinoleoxystearate (INT-A002), 3-(dimethylamino)propyl (±)-syn-9,10-dilinoleoxystearate (INT-A003), 2-(diethylamino)ethyl (±)-syn-9,10-dilinoleoxystearate (INT-A004), 3-(dimethylamino)propyl (12R)-linoleoxyoleate (INT-A005), 3-(diethylamino)propyl (syn-9,10,12R)-trilinoleoxystearate (INT-A006), and 3-(diethylamino)propyl (±)-syn-9,10-bis(2-hexyldecanoyloxy)stearate (INT-A007).
The level of luminescence was measured 16-24 hr post treatment and the relative luminescence is ranked from highest (left) to lowest (right).
The activity of the ionizable lipids in vitro was evaluated in luciferase expressing human prostate cells (22Rv1). LNPs containing siRNA against firefly luciferase were prepared as described in Example 2. […] Equal amounts of Steady-Glo reagent (Promega) was added to each sample and the level of luminescence was determined using a Synergy LX plate reader (BioTek). […]

[5] = Peptide incorporation into LNP (Peptide:Lipid ratio; BCA or CBQCA protein quantification); format: physicochemical
Description: as §1
Quantification of protein/peptide was performed with the use of either the BCA Protein Assay (Pierce) or the CBQCA Protein Quantitation Kit (Invitrogen) according to the manufacturer's instructions.

[6] = LNP containing ionizable lipid and antisense oligonucleotide
[7] = LNP containing ionizable lipid and siRNA
[8] = LNP containing ionizable lipid and HA (8-15 kDa)
[9] = LNP containing ionizable lipid and a 2.0 kDa acidic peptide (net charge -3)
[10] = LNP containing ionizable lipid and a 4.2 kDa acidic peptide (net charge -3)

## CCCCCCCCC(CCCCCC)C(=O)O[C@@H](CCCCCCCC)[C@@H](CCCCCCCC(=O)OCCCN(CC)CC)OC(=O)C(CCCCCC)CCCCCCCC (mixture of isomers) [INT-A007, 3-(Diethylamino)propyl (±)-syn-9,10-bis(2-hexyldecanoyloxy)stearate]
Factor VII (FVII)
  Activity in mediating FVII gene-silencing (residual serum FVII levels): active in mediating gene-silencing
[1]
  HA:Lipid: 0.096 wt/wt
[2]; [6]
  Encapsulation Efficiency: 84%
[2]; [7]
  Encapsulation Efficiency: 84%
[3]; [8]
  Particle Diameter: 58 nm
  Polydispersity index (PDI): 0.065
[3]; [9]
  Particle Diameter: 79 nm
  Polydispersity index (PDI): 0.019
[3]; [10]
  Particle Diameter: 52 nm
  Polydispersity index (PDI): 0.049
[3]; [6]
  Particle Diameter: 55 nm
  Polydispersity index (PDI): 0.070
[3]; [7]
  Particle Diameter: 59 nm
  Polydispersity index (PDI): 0.021
[4]
  Relative activity in silencing of the firefly luciferase gene (luminescence): most active
[5]; [9]
  Peptide:Lipid: 0.075 wt/wt
[5]; [10]
  Peptide:Lipid: 0.162 wt/wt
